Measurements: publication PMC9231303, “Pharmacokinetic–Pharmacometabolomic Approach in Early-Phase Clinical Trials: A Way Forward for Targeted Therapy in Type 2 Diabetes” (Pharmaceutics, 2022)
“And” between values parts separate entries of the source, which are not always exact repeats. Identical values can stand only once. “Also recorded” adds a separate entry of the source. Like-named read-outs stand apart in the source and are kept apart here.

Legend:
[1] = system: human metabolic pathways (KEGG); assay: Untargeted urine pharmacometabolomics (pre-dose U0 versus U1 0–4 h, U2 4–8 h, U3 8–12 h, n = 6), mummichog functional pathway analysis; assay type: in vivo; conditions: urine collections 0–12 h
[2] = cited from earlier work
[3] = Clinical safety, adverse event and glucose monitoring after single-dose metformin 1000 mg in healthy subjects; assay type: in vivo, human
Description: Three cohorts were planned to ensure sufficient clinical ward staff and space to monitor every subject on the dosing day. Subjects were housed in a controlled environment, and standardized meals were provided to each cohort. The blood samples were collected using an ethylenediaminetetraacetic acid (EDTA) tube and centrifuged at 10,000 rpm for 10 min at 4. The plasma samples together with the urine samples were kept in a -80 °C freezer in cryovials for further analysis. The subjects were monitored for adverse events until seven days post-dose. Pre-dose and peak-concentration plasma samples were used for untargeted pharmacometabolomic analysis to determine the treatment metabotypes.

[4] = system: human metabolic pathways (KEGG); assay: Untargeted plasma pharmacometabolomics dataset A (pre-dose versus T2.5, 3, 3.5 h, n = 6), mummichog functional pathway analysis; conditions: time course 0–12 h
clinical = conditions: human, in vivo

SMILES: CN(C)C(=N)N=C(N)N [metformin]
- metformin in urine (untargeted LCMS, positive mode) [1]: achieved high concentration in the first 8 h and a slight reduction during 8–12 h
- peak plasma concentration ([2]; diabetic patients, 1000 mg twice daily chronically): approximately 40 µM
- plasma concentration reached within three hours ([2]; oral 1000 mg, non-diabetic subjects): 25 µM
- Glucose ([3]; 4 hours post-dose (before lunch), mean of 17 subjects): 4.7 mmol/L
- Glucose ([3]; 4 hours post-dose, subject S01): 5.0 mmol/L
- Glucose ([3]; 4 hours post-dose, subject S02): 4.7 mmol/L
- Glucose ([3]; 4 hours post-dose, subject S04): 4.8 mmol/L
- Glucose ([3]; 4 hours post-dose, subject S05): 5.2 mmol/L
- Glucose ([3]; 4 hours post-dose, subject S06): 4.6 mmol/L
- Glucose ([3]; 4 hours post-dose, subject S07): 4.7 mmol/L
- Glucose ([3]; 4 hours post-dose, subject S08): 4.3 mmol/L
- Glucose ([3]; 4 hours post-dose, subject S09): 4.4 mmol/L
- Glucose ([3]; 4 hours post-dose, subject S10): 4.9 mmol/L
- Glucose ([3]; 4 hours post-dose, subject S11): 4.7 mmol/L
- Glucose ([3]; 4 hours post-dose, subject S12): 5.2 mmol/L
- Glucose ([3]; 4 hours post-dose, subject S13): 4.4 mmol/L
- Glucose ([3]; 4 hours post-dose, subject S14): 4.7 mmol/L
- Glucose ([3]; 4 hours post-dose, subject S15): 4.4 mmol/L
- Glucose ([3]; 4 hours post-dose, subject S16): 4.9 mmol/L
- Glucose ([3]; 4 hours post-dose, subject S17): 4.6 mmol/L
- Glucose ([3]; 4 hours post-dose, subject S18): 3.9 mmol/L
- clinical laboratory characteristics ([3]; screening versus follow-up, clinician judgement): within normal range and considered no significant changes
- adverse drug reaction ([3]; single dose 1000 mg, 17 healthy subjects, monitored until seven days post-dose): One subject experienced abdominal pain after the dosing; also recorded: stomach cramps; also recorded: one side effect was observed
- Tmax (male, human, in vivo): 3 h
- T_max (male, human, in vivo, po): 2.5 (2.5–3.0) h
- CL (male, human, in vivo, po, 1000 mg): 1884 (32.3) mL/min
- Tmax (subject S6): 2 h
- Tmax (subject S8): 3.5 h and 2 h
- Cmax (subject S10): 1391.3 ng/mL
- Tmax (subject S15): 4 h
- Tmax (subject S16): 2 h
- Cmax (subject S17): 1381.7 ng/mL
- Tmax (subject S17): 4 h
- metformin intensity in plasma (untargeted LCMS, positive mode) [4]: a reducing trend happened at 8 h and a return to zero at 12 h
- Cmax (clinical; 1000 mg, subject S4): 1430 ng/mL
- Cmax (clinical; 1000 mg, subject S9): 1170 ng/mL
- Tmax (clinical; male): 2.65 h
- AUC(0-t) (clinical; male, 1000 mg): 10900 ng·h/mL
- k el (clinical; male, Ke): 3.97e-05 s⁻¹
- AUC (clinical; male, po, 1000 mg): 9510 ng·h/mL
- AUC(0-t) (clinical; male, po, 1000 mg, AUC_0–24): 8960 ng·h/mL
